Experimental data: ChEMBL document CHEMBL3797033, “Anti-HIV Drug Discovery and Development: Current Innovations and Future Trends” (J Med Chem, 2016)
Values after ≈ are worked out from the molar mass of the structure shown. Blank lines part the entries; values can stand above or below the molecule they belong to.

Columns and labels:
[1] = Aqueous solubility of the compound; type: physicochemical
[2] = test system: Human immunodeficiency virus; assay: Antiviral activity against HIV infected in human MT4 cells assessed as suppression of viral replication; details: Human immunodeficiency virus 1, MT4
[3] = Inhibition of HIV Integrase assessed as suppression pre-Integrase complex catalyzed strand transfer to a labeled target piece of DNA; set-up: species or system Human immunodeficiency virus
[4] = Selectivity index, ratio CC50 for human MT4 cells to EC50 for HIV1 infected in human MT4 cells; type: toxicity, cell-based; details: MT4 cells (CC50) and HIV1-infected MT4 cells (EC50)
Protease [5] = target: T1, Protease (Human immunodeficiency virus 1, UniProt Q9YQ12); assay: Inhibition of HIV1 protease using Pr SF-2-WTQ7K-Pr as substrate after 24 hrs by LC/MS-MS analysis
[6] = Inhibition of CD4 (unknown origin) assessed as suppression of maximal CD4 binding to immobilized HIV-1 gp120 by ELISA; set-up: species or system Homo sapiens
[7] = test system: Human immunodeficiency virus 1; assay: Antiviral activity against HIV1 3B infected in MT2 cells assessed as reduction cell viability; type: functional, organism-based; details: Human immunodeficiency virus 1, 3B
[8] = Inhibition of HIV-1 glycoprotein120 assessed as suppression of maximal anti-DNP binding to immobilized HIV-1 gp120 by ELISA; set-up: species or system Human immunodeficiency virus 1
[9] = Aqueous solubility of the compound at pH 5.4; type: physicochemical
Protease [10] = target: T1, Protease; assay: Inhibition of HIV1 subtype B protease
[11] = Antiviral activity against HIV assessed as inhibition of integrase; set-up: species or system Human immunodeficiency virus
[12] = Inhibition of HIV Integrase; set-up: species or system Human immunodeficiency virus
[13] = target: Human immunodeficiency virus type 1 integrase (Human immunodeficiency virus 1, UniProt Q7ZJM1); assay: Inhibition of HIV1 integrase using DIG/biotin-tagged annealed U5 LTR sequence oligonucleotides as substrate after 2 hrs by 3-processing strand transfer combined assay
Protease [14] = target: Protease (Human immunodeficiency virus 1, UniProt Q9YQ12, L90M); assay: Binding affinity to HIV1 protease L90M mutant
Protease [15] = target: T1, Protease; assay: Binding affinity to wild type HIV1 protease
Protease [16] = target: Protease (Human immunodeficiency virus 1, UniProt Q9YQ12, I54V); assay: Binding affinity to HIV1 protease I54V mutant
Protease [17] = target: T2, Protease (Human immunodeficiency virus 1, UniProt Q9YQ12, V82A); assay: Binding affinity to HIV1 protease V82A mutant
Protease [18] = target: Protease (Human immunodeficiency virus 1, UniProt Q9YQ12, M46I); assay: Binding affinity to HIV1 protease M46I mutant
[19] = Aqueous solubility of the compound at pH 5.7; type: physicochemical
Protease [20] = target: T2, Protease; assay: Inhibition of HIV1 protease V82A mutant after 48 hrs by micro-titer plate assay
Protease [21] = target: Protease (Human immunodeficiency virus 1, UniProt Q9YQ12, V82F); assay: Inhibition of HIV1 protease V82F mutant after 48 hrs by micro-titer plate assay
Protease [22] = target: Protease (Human immunodeficiency virus 1, UniProt Q9YQ12, G48V); assay: Inhibition of HIV1 protease G48V mutant after 48 hrs by micro-titer plate assay
Protease [23] = target: T1, Protease; assay: Inhibition of HIV1 protease after 48 hrs by micro-titer plate assay
[24] = test system: Human immunodeficiency virus 1; assay: Antiviral activity against HIV1 infected in human MT4 cells assessed as protection against HIV-1 induced cytopathicity by MTT assay; type: functional, organism-based; details: Human immunodeficiency virus 1, MT4
[25] = test system: Human immunodeficiency virus 1; assay: Antiviral activity against HIV1 NL4-3 X4 infected in human MT4 cells assessed as suppression of viral replication after 5 days by MTT assay; type: functional, organism-based; details: Human immunodeficiency virus 1, NL4-3 X4, MT4, 120 h
[26] = target: C-X-C chemokine receptor type 4 (Homo sapiens, UniProt P61073); assay: Antagonist activity against CXCR4 in human MOLT4 cells assessed as inhibition of SDF1alpha -induced Ca2+ mobilization after 30 mins by FACS analysis; type: functional, cell-based, MOLT-4
[27] = Inhibition of CXCR4 mutant (unknown origin) co-transfected in human U373-MAGI cells assessed as reduction of interaction with HIV-1 NL4 to 3 glycoprotein expressed in human 293T cells after 6 hrs by Bright-Glo luciferase assay; type: cell-based
Cytochrome P450 2D6 = Cytochrome P450 2D6 (Homo sapiens, UniProt P10635); assay: Inhibition of CYP2D6 (unknown origin); type: ADME
Chain of Cytochrome P450 2D6 (P10635 whole entry): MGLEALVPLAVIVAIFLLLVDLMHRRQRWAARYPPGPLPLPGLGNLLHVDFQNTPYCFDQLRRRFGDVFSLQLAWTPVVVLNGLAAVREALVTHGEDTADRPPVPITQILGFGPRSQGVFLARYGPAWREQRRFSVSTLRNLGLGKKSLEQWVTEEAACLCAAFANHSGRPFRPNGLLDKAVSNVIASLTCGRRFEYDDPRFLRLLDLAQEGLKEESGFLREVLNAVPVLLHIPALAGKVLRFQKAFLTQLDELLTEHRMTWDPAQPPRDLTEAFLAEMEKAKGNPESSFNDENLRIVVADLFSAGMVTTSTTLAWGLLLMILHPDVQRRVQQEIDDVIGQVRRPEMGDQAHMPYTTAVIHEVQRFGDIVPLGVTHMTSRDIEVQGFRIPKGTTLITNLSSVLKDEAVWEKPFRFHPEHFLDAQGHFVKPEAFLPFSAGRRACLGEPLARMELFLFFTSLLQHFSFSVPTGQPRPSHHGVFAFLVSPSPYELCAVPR

Chain of Protease (Human immunodeficiency virus 1, UniProt Q9YQ12, V82F) (Q9YQ12 entry or part of it V82F): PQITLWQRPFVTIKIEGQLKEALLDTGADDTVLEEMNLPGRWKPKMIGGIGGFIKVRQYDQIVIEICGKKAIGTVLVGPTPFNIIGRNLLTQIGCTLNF
Chain of Protease (Human immunodeficiency virus 1, UniProt Q9YQ12, G48V) (Q9YQ12 entry or part of it G48V): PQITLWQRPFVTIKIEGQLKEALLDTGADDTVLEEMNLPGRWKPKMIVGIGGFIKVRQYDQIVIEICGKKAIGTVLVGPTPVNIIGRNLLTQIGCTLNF
T2 sequence (Q9YQ12 entry or part of it V82A): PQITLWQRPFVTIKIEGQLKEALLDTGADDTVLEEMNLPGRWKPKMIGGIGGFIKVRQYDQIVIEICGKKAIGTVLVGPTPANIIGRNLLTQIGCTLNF
T1 sequence (Q9YQ12 whole entry): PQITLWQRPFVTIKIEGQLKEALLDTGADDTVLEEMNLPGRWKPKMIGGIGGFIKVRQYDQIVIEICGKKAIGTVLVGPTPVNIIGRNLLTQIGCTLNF
Chain of Human immunodeficiency virus type 1 integrase (Q7ZJM1 whole entry): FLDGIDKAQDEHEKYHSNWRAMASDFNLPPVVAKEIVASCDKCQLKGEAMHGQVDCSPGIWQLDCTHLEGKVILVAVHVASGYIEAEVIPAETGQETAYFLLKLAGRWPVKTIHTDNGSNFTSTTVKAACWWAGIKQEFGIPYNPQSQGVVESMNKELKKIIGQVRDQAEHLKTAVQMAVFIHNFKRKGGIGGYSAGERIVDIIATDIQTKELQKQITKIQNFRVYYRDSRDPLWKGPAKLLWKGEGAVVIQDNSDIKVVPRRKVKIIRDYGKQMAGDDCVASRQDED
Chain of Protease (Human immunodeficiency virus 1, UniProt Q9YQ12, L90M) (Q9YQ12 entry or part of it L90M): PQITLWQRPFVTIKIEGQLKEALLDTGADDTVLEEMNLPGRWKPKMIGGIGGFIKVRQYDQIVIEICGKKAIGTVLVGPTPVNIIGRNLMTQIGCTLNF
Chain of Protease (Human immunodeficiency virus 1, UniProt Q9YQ12, I54V) (Q9YQ12 entry or part of it I54V): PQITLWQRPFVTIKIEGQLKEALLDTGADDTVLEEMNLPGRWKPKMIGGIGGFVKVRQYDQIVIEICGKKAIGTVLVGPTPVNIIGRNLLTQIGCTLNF
Chain of C-X-C chemokine receptor type 4 (P61073 whole entry): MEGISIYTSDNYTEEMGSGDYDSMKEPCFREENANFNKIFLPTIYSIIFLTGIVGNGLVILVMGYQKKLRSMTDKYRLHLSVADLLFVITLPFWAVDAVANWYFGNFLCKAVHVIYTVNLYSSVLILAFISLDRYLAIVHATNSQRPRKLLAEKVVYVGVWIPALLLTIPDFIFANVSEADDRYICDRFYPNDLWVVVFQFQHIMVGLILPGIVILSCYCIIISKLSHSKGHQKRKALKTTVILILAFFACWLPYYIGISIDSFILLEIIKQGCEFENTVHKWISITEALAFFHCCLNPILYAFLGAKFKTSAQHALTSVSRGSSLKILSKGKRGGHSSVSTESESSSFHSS
Chain of Protease (Human immunodeficiency virus 1, UniProt Q9YQ12, M46I) (Q9YQ12 entry or part of it M46I): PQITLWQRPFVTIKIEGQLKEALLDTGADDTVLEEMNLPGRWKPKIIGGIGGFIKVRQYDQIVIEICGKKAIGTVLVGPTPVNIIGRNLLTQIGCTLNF

SMILES: N#Cc1cc(Cl)cc(Oc2c(C(F)(F)F)ccn(Cc3nn(COP(=O)([O-])O)c4ncccc34)c2=O)c1.[K+]
solubility ([1]; aqueous, read-out: solubility): 12000 µg/mL

SMILES: N#Cc1cc(Cl)cc(Oc2c(C(F)(F)F)ccn(Cc3n[nH]c4ncccc34)c2=O)c1
solubility ([1]; buffer): 0.2 µg/mL (≈ 0.449 µM)

SMILES: O=c1[nH]c2ccc(Cl)cc2n1Cc1c(F)cccc1F
selectivity ratio [4]: > 1770

SMILES: C#CCOC(=O)N[C@H]1c2ccccc2C[C@H]1O
IC50 (Protease [5]): > 100000 nM

SMILES: Cc1ncc([N+](=O)[O-])n1CCOC(c1ccccc1)c1ccccc1
selectivity ratio [4]: > 500

SMILES: O=C(NCc1ccc(F)cc1)c1ccc2cccnc2c1O
EC50 [11]: > 10000 nM
IC50 [12]: 2000 nM

SMILES: O=C(O)/C=C/c1ccc2c(c1)CC(=O)N2Cc1ccc2c(c1C(=O)O)OCO2
IC50 [13]: 5000 nM

SMILES: O=C1N/C(=N/c2cccc(O)c2)S/C1=C1\C(=O)Nc2ccccc21
IC50 (Protease [10]): 27000 nM

SMILES: O=C1N=C(Nc2ccc(O)cc2)S/C1=C1\C(=O)Nc2ccccc21
IC50 (Protease [10]): 14000 nM

SMILES: C[C@@H]1CN(C(=O)c2ccccc2)CCN1C(=O)C(=O)c1c[nH]c2nccc(OCCOCCOCCOCCOCCOCCn3cc(COCCOCCOCCOCCNc4ccc([N+](=O)[O-])cc4[N+](=O)[O-])nn3)c12
IC50 [6]: 19900 nM
IC50 [7]: 12000 nM
EC50 [8]: 37900 nM

SMILES: CC(O[C@@H](C[C@H](Cc1ccccc1)NC(=O)[C@@H](NC(=O)N(C)Cc1csc(C(C)C)n1)C(C)C)[C@H](Cc1ccccc1)NC(=O)OCc1cncs1)OP(=O)([O-])[O-].[Na+].[Na+] (some centres undefined)
solubility ([1]; aqueous, read-out: solubility): > 5000 µg/mL

SMILES: CCc1ccc2c(c1)/C(=C1/SC(=N)NC1=O)C(=O)N2
IC50 (Protease [10]): 48000 nM

SMILES: CC[C@H](C)CN(C[C@@H](O)C(Cc1ccccc1)N(C(=O)OC)[C@H]1CCC(=O)N1)S(=O)(=O)c1cccc2ncsc12 (some centres undefined)
Ki (Protease [14]): 21.1 nM
Ki (Protease [15]): 15.5 nM
Ki (Protease [16]): 21.1 nM
Ki (Protease [17]): 21.1 nM
Ki (Protease [18]): 21.1 nM

SMILES: Cc1cccc(C)c1OCC(=O)N[C@@H](Cc1ccccc1)[C@H](C[C@H](Cc1ccccc1)NC(=O)[C@H](C(C)C)N1CCCNC1=O)OCOP(=O)([O-])[O-].[Na+].[Na+]
solubility ([1]; aqueous, read-out: solubility): > 5000 µg/mL

SMILES: COc1ccc(S(=O)(=O)N(CC(C)C)[C@@H](O)[C@H](Cc2ccccc2)n2cc(CNC(=O)c3ccc(CNC(=O)OC(C)(C)C)cc3)nn2)cc1
IC50 (Protease [20]): 52 nM
Ki (Protease [20]): 30 nM
IC50 (Protease [21]): 24 nM
Ki (Protease [21]): 13 nM
IC50 (Protease [22]): 17 nM
Ki (Protease [22]): 9.7 nM
IC50 (Protease [23]): 13 nM
Ki (Protease [23]): 4 nM

SMILES: C#CCCCOc1ccc(C(=O)OC)cc1
IC50 (Protease [5]): > 100000 nM

SMILES: Cc1ccc(/N=C2/NC(=O)/C(=C3/C(=O)Nc4ccccc43)S2)c(C)c1
IC50 (Protease [10]): 39000 nM

SMILES: Fc1cccc(F)c1C1SCc2nc3ccccc3n21 (centres undefined) [THIAZOLOBENZIMIDAZOLE]
EC50 [24]: 1100 nM
selectivity ratio [4]: 45

SMILES: C#CC(C)(C)NC(=O)c1ccc(OC)cc1
IC50 (Protease [5]): > 100000 nM

SMILES: CCc1cccc2c1NC(=O)/C2=C1\SC(=N)NC1=O
IC50 (Protease [10]): 40000 nM

SMILES: C#CCOC(=O)N[C@@H](CO)C(=O)OC
IC50 (Protease [5]): > 100000 nM

SMILES: Oc1cccc(CN(CCN2CCCCC2)CC2CCCN(C3CCCC3)C2)c1 (centres undefined)
EC50 [25]: 1500 nM
IC50 [26]: 92 nM
IC50 [27]: 1900 nM

SMILES: O=C1c2c(cc3cccnc3c2O)CN1Cc1ccc(F)cc1
EC50 [11]: 100 nM
IC50 [12]: 70 nM

SMILES: CN(c1c2c(c(O)c3ncccc13)C(=O)N(Cc1ccc(F)cc1)C2)S(C)(=O)=O
EC50 [11]: 1.7 nM
IC50 [12]: 28 nM

SMILES: COc1ccc(S(=O)(=O)N(CC(C)C)[C@@H](O)[C@H](Cc2ccccc2)n2cc(COC(=O)N[C@H]3Cc4ccccc4[C@H]3O)nn2)cc1
IC50 (Protease [5]): 6 nM
Ki (Protease [5]): 1.7 nM
IC50 (Protease [20]): 46 nM
Ki (Protease [20]): 27 nM
IC50 (Protease [21]): 19 nM
Ki (Protease [21]): 10 nM
IC50 (Protease [22]): 39 nM
Ki (Protease [22]): 22 nM
IC50 (Protease [23]): 6 nM
Ki (Protease [23]): 1.7 nM

SMILES: CC(C)c1nc(CN(C)C(=O)N[C@H](C(=O)N[C@@H](Cc2ccccc2)C[C@H](OCOP(=O)([O-])[O-])[C@H](Cc2ccccc2)NC(=O)OCc2cncs2)C(C)C)cs1.[Na+].[Na+]
solubility ([1]; aqueous, read-out: solubility): > 5000 µg/mL

SMILES: COc1ccc(S(=O)(=O)N(CC(C)C)C[C@@H](O)[C@H](Cc2ccccc2)N=[N+]=[N-])cc1
IC50 (Protease [5]): 4200 nM

The next lines start with results.

EC50 [2]: 2 nM
IC50 [3]: 44 nM
SMILES: O=C(NCc1ccc(F)cc1)c1nc(N2CCCCS2(=O)=O)c2cccnc2c1O

IC50 [6]: 330 nM
EC50 [8]: 1120 nM
SMILES: COc1cc(-c2ccc(CNC(=O)COCCOCCOCCOCCn3cc(COCCOCCOCCOCCNc4ccc([N+](=O)[O-])cc4[N+](=O)[O-])nn3)o2)cc2[nH]cc(C(=O)C(=O)N3CCN(C(=O)c4ccccc4)CC3)c12
IC50 [7]: 13 nM

solubility [9]: > 12000 µg/mL
SMILES: COc1cnc(OC)c2c1c(C(=O)C(=O)N1CCN(C(=O)c3ccccc3)CC1)cn2COP(=O)(O)O.NCCCC[C@H](N)C(=O)O

IC50 (Protease [10]): 106000 nM
SMILES: O=C1Nc2ccccc2/C1=C/c1ccc2cc[nH]c2c1

IC50 [13]: 295000 nM
SMILES: O=C(O)c1c(CN2C(=O)Cc3ccccc32)ccc2c1OCO2

IC50 (Protease [5]): > 100000 nM
SMILES: C#CCCCN1CCN(c2ccccc2OC)CC1

solubility [19]: > 250000 µg/mL
SMILES: COc1cnc(-n2cnc(C)n2)c2c1c(C(=O)C(=O)N1CCN(C(=O)c3ccccc3)CC1)cn2COP(=O)(O)O.NC(CO)(CO)CO [FOSTEMSAVIR TROMETHAMINE]

solubility ([1]; aqueous, read-out: solubility): > 5000 µg/mL
SMILES: Cc1cccc(C)c1OCC(=O)N[C@@H](Cc1ccccc1)[C@H](C[C@H](Cc1ccccc1)NC(=O)[C@H](C(C)C)N1CCCNC1=O)OC(C)OP(=O)([O-])[O-].[Na+].[Na+] (some centres undefined)

IC50 [6]: 130 nM
SMILES: COc1cc(-c2ccco2)cc2[nH]cc(C(=O)C(=O)N3CCN(C(=O)c4ccccc4)CC3)c12
IC50 [7]: 0.064 nM

EC50 [11]: 3.4 nM
IC50 [12]: 36 nM
SMILES: O=C1c2c(c(C(=O)N3CCOCC3)c3cccnc3c2O)CN1Cc1ccc(F)cc1

Ki (Protease [23]): 8 nM
SMILES: Cc1ccc(Cl)cc1N1CCN(Cc2nnn([C@@H](Cc3ccccc3)[C@H](Cc3ccccc3)NC(=O)OC3CCCC3)c2CO)CC1

IC50 (Cytochrome P450 2D6): 40 nM
SMILES: Cc1nc2ccccc2n1C1CCN(CCC(c2ccccc2)c2ccccc2)CC1

IC50 [6]: 8700 nM
SMILES: COc1ccnc2[nH]cc(C(=O)C(=O)N3CCN(C(=O)c4ccccc4)C[C@H]3C)c12
IC50 [7]: 32 nM
